The text below walks through data of ChEMBL document CHEMBL1156341, “Synthesis of new artemisinin analogues from artemisinic acid modified at C-3 and C-13 and their antimalarial activity” (J Nat Prod, 2001).

Converted amounts (≈) assume the structure as drawn.

The subject of experiment [1] is Plasmodium falciparum. The experiment can be described thus: Antimalarial activity against chloroquine-sensitive Plasmodium falciparum D6. It is filed as functional, organism-based.
For experiment [2], the system named is Plasmodium falciparum. The experiment can be described thus: Antimalarial activity against chloroquine-resistant Plasmodium falciparum W2. It is filed as functional, organism-based.
Experiment [3] in a line: Cytotoxicity against human vinblastine-resistant KBVIN cells in presence of vinblastine. It is filed as functional, cell-based.

As to `C[C@@H]1CC[C@H]2[C@@H](CC#N)C(=O)O[C@@H]3O[C@@]4(C)CC[C@@H]1[C@]32OO4`, the 50% inhibitory concentration (IC50) with Plasmodium falciparum [1] worked out at 18.4 ng/mL (≈ 0.0599 µM); with Plasmodium falciparum [2], 8.4 ng/mL (≈ 0.0273 µM).
For `COC(=O)C[C@H]1C(=O)O[C@@H]2O[C@@]3(C)CC[C@H]4[C@H](C)CC[C@@H]1[C@@]24OO3`, the IC50 with Plasmodium falciparum [1] amounted to 46 ng/mL (≈ 0.135 µM); with Plasmodium falciparum [2], 33 ng/mL (≈ 0.097 µM).
Regarding `CC(=O)O[C@@H]1C[C@H]2[C@H](C)CC[C@H]3[C@@H](C)C(=O)O[C@@H]4O[C@]1(C)OO[C@]423`, the results for the IC50 in the experiment on Plasmodium falciparum [1] and with Plasmodium falciparum [2] were 11.1 ng/mL (≈ 0.0326 µM) and 2.07 ng/mL (≈ 0.00608 µM), respectively.
The like results for `COC[C@H]1C(=O)O[C@@H]2O[C@@]3(C)CC[C@H]4[C@H](C)CC[C@@H]1[C@@]24OO3` were, in that order, 75 ng/mL (≈ 0.24 µM) and 59 ng/mL (≈ 0.189 µM).
In the case of `C[C@@H]1CC[C@H]2C(=C3CC3)C(=O)O[C@@H]3O[C@@]4(C)CC[C@@H]1[C@]32OO4`, the IC50 in the experiment on Plasmodium falciparum [1] amounted to 6.2 ng/mL (≈ 0.0202 µM); with Plasmodium falciparum [2], 4.3 ng/mL (≈ 0.014 µM).
As to `C[C@@H]1CC[C@H]2[C@@H](CC[N+](=O)[O-])C(=O)O[C@@H]3O[C@@]4(C)CC[C@@H]1[C@]32OO4`, the half-inhibitory concentration (IC50) stood at 0.68 ng/mL (≈ 0.00199 µM) in the experiment with Plasmodium falciparum [1], 0.26 ng/mL (≈ 0.000762 µM) in the experiment on Plasmodium falciparum [2] and 5.1 ng/mL in experiment [3].
Turning to `CCS(=O)(=O)C[C@H]1C(=O)O[C@@H]2O[C@@]3(C)CC[C@H]4[C@H](C)CC[C@@H]1[C@@]24OO3`, the IC50 with Plasmodium falciparum [1] and with Plasmodium falciparum [2] was above 500 ng/mL each time.
On to `C[C@@H]1CC[C@H]2[C@@H](C)C(=O)O[C@@H]3O[C@@]4(C)CC[C@@H]1[C@]32OO4` [ARTEMISININ], for which, in the experiment with Plasmodium falciparum [2], the IC50 turned out to be 0.2 ng/mL (≈ 0.000708 µM).
Same read-out and setting: the result for `OC(c1cc(C(F)(F)F)nc2c(C(F)(F)F)cccc12)C1CCCCN1` (centres undefined) [MEFLOQUINE] reads 3.6 ng/mL (≈ 0.00952 µM).
Turning to `C=C[C@H]1CN2CC[C@H]1C[C@H]2[C@H](O)c1ccnc2ccc(OC)cc12` [QUININE], the concentration for half-maximal inhibition (IC50) in the experiment with Plasmodium falciparum [1] was 19.6 ng/mL (≈ 0.0604 µM); in the experiment with Plasmodium falciparum [2] it was 102 ng/mL (≈ 0.314 µM).
